Read-outs that look alike come from different tables or passages of the source. Numbered stars: 1 amine (or outer) side, 2 acyl side, 3 side chain; on linkers, the order of the positions; unused ones are H or OH. Bridge positions count the residues as written; N and C are the ends. Square brackets hold non-standard residues; d marks the D form. Peptide text beside a SMILES is read from it. * marks the point of attachment. Bip(4'-COOH) = N[C@@H](Cc1ccc(-c2ccc(C(=O)O)cc2)cc1)C(=O)O; Bip(4'-NHAc) = CC(=O)Nc1ccc(-c2ccc(C[C@H](N)C(=O)O)cc2)cc1; X31 = N=C(N)Nc1ccc(-c2ccc(C[C@H](N[*:1])C(=O)[*:2])cc2)cc1; Phe(3,4,5-F3) = N[C@@H](Cc1cc(F)c(F)c(F)c1)C(=O)O; Phe(3-CF3) = N[C@@H](Cc1cccc(C(F)(F)F)c1)C(=O)O; Ala(morpholin-4-yl) = N[C@@H](CN1CCOCC1)C(=O)O; Phe(4-CONH2) = NC(=O)c1ccc(C[C@H](N)C(=O)O)cc1; Phe(4-COOH) = N[C@@H](Cc1ccc(C(=O)O)cc1)C(=O)O; Bip = N[C@@H](Cc1ccc(-c2ccccc2)cc1)C(=O)O; Abu(3R-NH2) = C[C@@H](N)[C@H](N)C(=O)O; Phe(3-Me) = Cc1cccc(C[C@H](N)C(=O)O)c1; Abu(3S-NH2) = C[C@H](N)[C@H](N)C(=O)O; Val(3-OH) = CC(C)(O)[C@H](N)C(=O)O; X11 = CC(N)[C@H](N[*:1])C(=O)[*:2]; hArg = N=C(N)NCCCC[C@H](N)C(=O)O; hPhe = N[C@@H](CCc1ccccc1)C(=O)O; Cha = N[C@@H](CC1CCCCC1)C(=O)O; aThr = C[C@H](O)[C@H](N)C(=O)O; dDab = NCC[C@@H](N)C(=O)O; Carboxymethyl = O=C(O)C*; NMeA = CN[C@@H](C)C(=O)O; Orn = NCCC[C@H](N)C(=O)O; Dab = NCC[C@H](N)C(=O)O
Biological target: T1, Alexa fluor-647 labeled human PD-L1-Ig binding to Jurkat cell line over-expressing human PD-1 (Homo sapiens, UniProt Q15116)
T1 construct: expressed in transfected cells; host or cells: Jurkat
T1 sequence (Q15116 25-288): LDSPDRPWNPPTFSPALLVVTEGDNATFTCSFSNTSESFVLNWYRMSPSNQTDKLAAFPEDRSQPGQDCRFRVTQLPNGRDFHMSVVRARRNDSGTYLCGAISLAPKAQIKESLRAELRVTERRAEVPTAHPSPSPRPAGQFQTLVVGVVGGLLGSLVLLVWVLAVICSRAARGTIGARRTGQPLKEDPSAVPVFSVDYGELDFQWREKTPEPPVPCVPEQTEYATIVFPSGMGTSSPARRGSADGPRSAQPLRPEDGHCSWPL
Test: Jurkat-PD-1 Cell Binding High-Content Screening Assay (CBA): Method 3 (Alexa fluor-647 labeled PD-L1-Ig)
Settings: Jurkat-PD-1 cells, Alexa fluor-647 labeled PD-L1-Ig 177 nM
Procedure, shortened: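 Readout by high-content imaging of PFA-fixed, Hoechst-stained cells after 1 h with 177 nM (final) Alexa fluor-647 PD-L1-Ig. Compound was added first to hPD-1 Jurkat cells in RPMI plus 10% FCS for 2 h at 37 °C.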

[1] = head μM, read-out: CBA Method 3 μM

SMILES | IC50 (nM, read-out: CBA Method 3) [nM] | IC50 [1] [nM]
CC(C)C[C@H]1NC(=O)[C@H](C)N(C)C(=O)[C@H](Cc2ccc(C(=O)O)cc2)NC(=O)[C@H](Cc2ccc(-c3ccccc3)cc2)NC(=O)[C@H](Cc2ccc(C(=O)O)cc2)NC(=O)[C@H](Cc2cccc(C(F)(F)F)c2)NC(=O)[C@H](CC(=O)O)NC(=O)[C@H](Cc2ccc(C(=O)O)cc2)NC(=O)[C@H](CC2CCCCC2)NC(=O)CSC[C@@H](C(=O)N[C@@H](CCN)C(N)=O)NC(=O)[C@H](CCC(=O)O)NC(=O)[C@H](C(C)C)NC(=O)[C@H](CC2CCCCC2)NC(=O)[C@H](CCN)NC1=O [Example 5195] ({CH2CO}-[Cha][Phe(4-COOH)]D[Phe(3-CF3)][Phe(4-COOH)][Bip][Phe(4-COOH)][NMeA][dL][Dab][Cha]VEC[Dab]-NH2; thioether N-14) | 1.7 | –
CC(C)C[C@H]1NC(=O)[C@H](C)N(C)C(=O)[C@H](CCC(N)=O)NC(=O)[C@H](Cc2ccc(-c3ccccc3)cc2)NC(=O)[C@H](Cc2ccc(-c3ccc(C(=O)O)cc3)cc2)NC(=O)[C@H](Cc2cccc(C(F)(F)F)c2)NC(=O)[C@H](CC(=O)O)NC(=O)[C@H](Cc2ccc(C(=O)O)cc2)NC(=O)[C@H](CC2CCCCC2)NC(=O)CSC[C@@H](C(=O)N[C@@H](CCN)C(N)=O)NC(=O)[C@H](CCCN)NC(=O)[C@H](C(C)C)NC(=O)[C@H](CC2CCCCC2)NC(=O)[C@H](CCN)NC1=O [Example 5165] ({CH2CO}-[Cha][Phe(4-COOH)]D[Phe(3-CF3)][Bip(4'-COOH)][Bip]Q[NMeA][dL][Dab][Cha]V[Orn]C[Dab]-NH2; thioether N-14) | – | 30
CC(C)C[C@H]1NC(=O)[C@H](C)N(C)C(=O)[C@H](Cc2ccc(C(=O)O)cc2)NC(=O)[C@H](Cc2ccc(-c3ccccc3)cc2)NC(=O)[C@H](CCc2ccccc2)NC(=O)[C@H](Cc2cccc(C(F)(F)F)c2)NC(=O)[C@H](CC(=O)O)NC(=O)[C@H](Cc2ccc(C(=O)O)cc2)NC(=O)[C@H](CCCCNC(=N)N)NC(=O)CSC[C@@H](C(=O)N[C@@H](CCN)C(N)=O)NC(=O)[C@H](CO)NC(=O)[C@H](C(C)(C)O)NC(=O)[C@H](CC2CCCCC2)NC(=O)[C@H](CCN)NC1=O [Example 5252] ({CH2CO}-[hArg][Phe(4-COOH)]D[Phe(3-CF3)][hPhe][Bip][Phe(4-COOH)][NMeA][dL][Dab][Cha][Val(3-OH)]SC[Dab]-NH2; thioether N-14) | 1.2 | –
CC(=O)Nc1ccc(-c2ccc(C[C@@H]3NC(=O)[C@H](Cc4cccc(C(F)(F)F)c4)NC(=O)[C@H](CC(=O)O)NC(=O)[C@H](Cc4ccc(C(=O)O)cc4)NC(=O)[C@H]([C@@H](C)N)NC(=O)CSC[C@@H](C(=O)N[C@@H](CCN)C(N)=O)NC(=O)[C@H](CCC(=O)O)NC(=O)[C@H](C(C)C)NC(=O)[C@H](CC4CCCCC4)NC(=O)[C@H](CCN)NC(=O)[C@@H](CC(C)C)NC(=O)[C@H](C)N(C)C(=O)[C@H](Cc4ccc(OCC(=O)O)cc4)NC(=O)[C@H](Cc4ccc(-c5ccccc5)cc4)NC3=O)cc2)cc1 [Example 5162] ({CH2CO}-[Abu(3R-NH2)][Phe(4-COOH)]D[Phe(3-CF3)][Bip(4'-NHAc)][Bip]Y(Carboxymethyl)[NMeA][dL][Dab][Cha]VEC[Dab]-NH2; thioether N-14) | 0.5 | –
CC(C)C[C@H]1NC(=O)[C@H](C)N(C)C(=O)[C@H](Cc2ccc(-c3ccc(NC(=N)N)cc3)cc2)NC(=O)[C@H](Cc2ccc(-c3ccccc3)cc2)NC(=O)[C@H](Cc2ccc(OCC(=O)O)cc2)NC(=O)[C@H](Cc2cccc(C(F)(F)F)c2)NC(=O)[C@H](CC(=O)O)NC(=O)[C@H](Cc2ccc(C(=O)O)cc2)NC(=O)[C@H]([C@H](C)N)NC(=O)CSC[C@@H](C(=O)N[C@H](CCN)C(N)=O)NC(=O)[C@H](CO)NC(=O)[C@H]([C@H](C)O)NC(=O)[C@H](CC2CCCCC2)NC(=O)[C@H](CCN)NC1=O [Example 5231] ({CH2CO}-[Abu(3S-NH2)][Phe(4-COOH)]D[Phe(3-CF3)]Y(Carboxymethyl)[Bip][X31][NMeA][dL][Dab][Cha][aThr]SC[dDab]-NH2; thioether N-14) | – | 140
CC(=O)Nc1ccc(-c2ccc(C[C@@H]3NC(=O)[C@H](Cc4cccc(C(F)(F)F)c4)NC(=O)[C@H](CC(=O)O)NC(=O)[C@H](Cc4ccc(C(=O)O)cc4)NC(=O)[C@H](CC(C)C)NC(=O)CSC[C@@H](C(=O)N[C@@H](CCN)C(N)=O)NC(=O)[C@H](CCC(=O)O)NC(=O)[C@H](C(C)C)NC(=O)[C@H](CC4CCCCC4)NC(=O)[C@H](CCN)NC(=O)[C@@H](CC(C)C)NC(=O)[C@H](C)N(C)C(=O)[C@H](CCCN)NC(=O)[C@H](Cc4ccc(-c5ccccc5)cc4)NC3=O)cc2)cc1 [Example 5094] ({CH2CO}-L[Phe(4-COOH)]D[Phe(3-CF3)][Bip(4'-NHAc)][Bip][Orn][NMeA][dL][Dab][Cha]VEC[Dab]-NH2; thioether N-14) | – | 30
Cc1cccc(C[C@@H]2NC(=O)[C@H](CC(=O)O)NC(=O)[C@H](Cc3ccc(OCC(=O)O)cc3)NC(=O)[C@H](CCCNC(=N)N)NC(=O)CSC[C@@H](C(=O)N[C@@H](CCN)C(N)=O)NC(=O)[C@H](CCCN)NC(=O)[C@H](C(C)C)NC(=O)[C@H](CC3CCCCC3)NC(=O)[C@H](CCN)NC(=O)[C@@H](CC(C)C)NC(=O)[C@H](C)N(C)C(=O)[C@H](CCC(N)=O)NC(=O)[C@H](Cc3ccc(-c4ccccc4)cc3)NC(=O)[C@H](Cc3ccc(C(=O)O)cc3)NC2=O)c1 [Example 5183] ({CH2CO}-RY(Carboxymethyl)D[Phe(3-Me)][Phe(4-COOH)][Bip]Q[NMeA][dL][Dab][Cha]V[Orn]C[Dab]-NH2; thioether N-14) | 2.3 | –
CC(C)C[C@H]1NC(=O)[C@H](C)N(C)C(=O)[C@H](Cc2ccc(C(N)=O)cc2)NC(=O)[C@H](Cc2ccc(-c3ccccc3)cc2)NC(=O)[C@H](Cc2ccc(OCC(=O)O)cc2)NC(=O)[C@H](Cc2cccc(C(F)(F)F)c2)NC(=O)[C@H](CC(=O)O)NC(=O)[C@H](Cc2ccc(C(=O)O)cc2)NC(=O)[C@H](C(C)N)NC(=O)CSC[C@@H](C(=O)N[C@@H](CCN)C(N)=O)NC(=O)[C@H](CO)NC(=O)[C@H](C(C)(C)O)NC(=O)[C@H](CC2CCCCC2)NC(=O)[C@H](CCN)NC1=O (stereo partly drawn) [Example 5147] ({CH2CO}-[X11][Phe(4-COOH)]D[Phe(3-CF3)]Y(Carboxymethyl)[Bip][Phe(4-CONH2)][NMeA][dL][Dab][Cha][Val(3-OH)]SC[Dab]-NH2; thioether N-14) | – | 10
CC(C)C[C@H]1NC(=O)[C@H](C)N(C)C(=O)[C@H](CCC(N)=O)NC(=O)[C@H](Cc2ccc(-c3ccccc3)cc2)NC(=O)[C@H](CCc2ccccc2)NC(=O)[C@H](Cc2cccc(C(F)(F)F)c2)NC(=O)[C@H](CC(=O)O)NC(=O)[C@H](CCC(N)=O)NC(=O)[C@H](CC2CCCCC2)NC(=O)CSC[C@@H](C(=O)N[C@@H](CCN)C(N)=O)NC(=O)[C@H](CCCN)NC(=O)[C@H](C(C)C)NC(=O)[C@H](CC2CCCCC2)NC(=O)[C@H](CCN)NC1=O [Example 5246] ({CH2CO}-[Cha]QD[Phe(3-CF3)][hPhe][Bip]Q[NMeA][dL][Dab][Cha]V[Orn]C[Dab]-NH2; thioether N-14) | – | 420
CC(=O)Nc1ccc(-c2ccc(C[C@@H]3NC(=O)[C@H](Cc4cccc(C)c4)NC(=O)[C@H](CC(=O)O)NC(=O)[C@H](Cc4ccc(-c5ccc(C(=O)O)cc5)cc4)NC(=O)[C@H](CN4CCOCC4)NC(=O)CSC[C@@H](C(=O)N[C@@H](CCN)C(N)=O)NC(=O)[C@H](CO)NC(=O)[C@H](C(C)(C)O)NC(=O)[C@H](CC4CCCCC4)NC(=O)[C@H](CC(N)=O)NC(=O)[C@@H](CC(C)C)NC(=O)[C@H](C)N(C)C(=O)[C@H](Cc4ccc(OCC(=O)O)cc4)NC(=O)[C@H](Cc4ccc(-c5ccccc5)cc4)NC3=O)cc2)cc1 [Example 5129] ({CH2CO}-[Ala(morpholin-4-yl)][Bip(4'-COOH)]D[Phe(3-Me)][Bip(4'-NHAc)][Bip]Y(Carboxymethyl)[NMeA][dL]N[Cha][Val(3-OH)]SC[Dab]-NH2; thioether N-14) | – | 30
CC(=O)Nc1ccc(-c2ccc(C[C@@H]3NC(=O)[C@H](Cc4cccc(C(F)(F)F)c4)NC(=O)[C@H](CC(=O)O)NC(=O)[C@H](Cc4ccc(C(=O)O)cc4)NC(=O)[C@H](Cc4ccc(OCC(=O)O)cc4)NC(=O)CSC[C@@H](C(=O)N[C@@H](CCN)C(N)=O)NC(=O)[C@H](CCC(=O)O)NC(=O)[C@H](C(C)C)NC(=O)[C@H](CC4CCCCC4)NC(=O)[C@H](CCN)NC(=O)[C@@H](CC(C)C)NC(=O)[C@H](C)N(C)C(=O)[C@H](Cc4ccc(OCC(=O)O)cc4)NC(=O)[C@H](Cc4ccc(-c5ccccc5)cc4)NC3=O)cc2)cc1 [Example 5163] ({CH2CO}-Y(Carboxymethyl)[Phe(4-COOH)]D[Phe(3-CF3)][Bip(4'-NHAc)][Bip]Y(Carboxymethyl)[NMeA][dL][Dab][Cha]VEC[Dab]-NH2; thioether N-14) | 2.5 | –
Cc1cccc(C[C@@H]2NC(=O)[C@H](CC(=O)O)NC(=O)[C@H](Cc3ccc(C(=O)O)cc3)NC(=O)[C@H](CC3CCCCC3)NC(=O)CSC[C@@H](C(=O)N[C@@H](CCN)C(N)=O)NC(=O)[C@H](CCC(=O)O)NC(=O)[C@H](C(C)C)NC(=O)[C@H](CC3CCCCC3)NC(=O)[C@H](CCN)NC(=O)[C@@H](CC(C)C)NC(=O)[C@H](C)N(C)C(=O)[C@H](Cc3ccc(C(=O)O)cc3)NC(=O)[C@H](Cc3ccc(-c4ccccc4)cc3)NC(=O)[C@H](Cc3ccc(-c4ccc(C(=O)O)cc4)cc3)NC2=O)c1 [Example 5198] ({CH2CO}-[Cha][Phe(4-COOH)]D[Phe(3-Me)][Bip(4'-COOH)][Bip][Phe(4-COOH)][NMeA][dL][Dab][Cha]VEC[Dab]-NH2; thioether N-14) | – | 10
Cc1cccc(C[C@@H]2NC(=O)[C@H](CC(=O)O)NC(=O)[C@H](Cc3ccc(OCC(=O)O)cc3)NC(=O)[C@H](Cc3cc(F)c(F)c(F)c3)NC(=O)CSC[C@@H](C(=O)N[C@@H](CCN)C(N)=O)NC(=O)[C@H](CCCN)NC(=O)[C@H](C(C)C)NC(=O)[C@H](CC3CCCCC3)NC(=O)[C@H](CCN)NC(=O)[C@@H](CC(C)C)NC(=O)[C@H](C)N(C)C(=O)[C@H](CCC(N)=O)NC(=O)[C@H](Cc3ccc(-c4ccccc4)cc3)NC(=O)[C@H](Cc3ccc(C(=O)O)cc3)NC2=O)c1 [Example 5287] ({CH2CO}-[Phe(3,4,5-F3)]Y(Carboxymethyl)D[Phe(3-Me)][Phe(4-COOH)][Bip]Q[NMeA][dL][Dab][Cha]V[Orn]C[Dab]-NH2; thioether N-14) | – | 270

Reference: patent US20240409585A1, “MACROCYCLIC IMMUNOMODULATORS” (priority 2021, published 2024)
